# ChEMBL document CHEMBL1154896, “Antineoplastic agents. 573. isolation and structure of papilistatin from the papilionid butterfly Byasa polyeuctes termessa” (2010)
# Legend:
# Format in all cases: functional
# [1] = test system: Micrococcus luteus; test: Antibacterial activity against Micrococcus luteus Presque Isle 456
# [2] = test system: KM-20L2; test: Cytotoxicity against human KM20L2 cells after 48 hrs by SRB assay; conditions: KM-20L2, 48 h
# [3] = test system: Enterococcus faecalis; test: Antibacterial activity against Enterococcus faecalis ATCC 29212
# [4] = test system: BXPC-3; test: Cytotoxicity against human BxPC3 cells after 48 hrs by SRB assay; conditions: BXPC-3, 48 h
# [5] = test system: Neisseria gonorrhoeae; test: Antibacterial activity against Neisseria gonorrheae ATCC 49226
# [6] = test system: Streptococcus pneumoniae; test: Antibacterial activity against Streptococcus pneumoniae ATCC 6303
# [7] = test system: Staphylococcus aureus; test: Antibacterial activity against Staphylococcus aureus ATCC 29213
compound,measurement,setting,value
COc1cccc2c1cc(C(=O)O)c1c(C(=O)O)cc3c(c12)OCO3 [PAPILISTATIN],MIC,[1],16 µg/mL
same,GI50,[2],0.096 µg/mL
same,MIC,[3],16 µg/mL
same,GI50,[4],0.093 µg/mL
same,MIC,[5],8 µg/mL
same,MIC,[6],32 µg/mL
same,MIC,[7],64 µg/mL
